Source: patent US20240123076A1, “UNSATURATED DENDRIMERS COMPOSITIONS, RELATED FORMULATIONS, AND METHODS OF USE THEREOF” (The Board of Regents of The University of Texas System, priority 2021, published 2024)
Entries after “also recorded” stand apart in the source; their conditions may differ.

Tests used:
[1] = Lipid fusion assay (FRET); conditions: PBS pH 5.5, 37° C., 5 min
Protocol: Endosome mimicking anionic liposomes were prepared by mixing DOPS:DOPC:DOPE:NBD-PE:N-Rh-PE (25:25:48:1:1 molar ratio) in CHCl3 at a fixed total lipid concentration of 1 mM. Afterwards, the film was created by rotary evaporation of the solution, followed by 2 h of vacuum drying to produce a thin lipid film.
LNPs were formulated with the in vivo method. 100 uL PBS (pH 5.5) was added to each well in a black 96-well plate (n=3 per sample), and 1 μL of endosome mimicking anionic liposomes (1 mM) was added to each well. Endosome mimicking anionic liposomes in PBS served as the negative control (Fmin), and the endosome mimic lipids incubated with 2% Triton-X in PBS solutions were set as positive control (Fmax). 10 μL of LNPs being tested were added to the wells (n=3). After incubating at 37° C. for 5 min., fluorescence measurements (F) were conducted on a microplate reader at Ex/Em=465/520 nm. The lipid fusion (%) was calculated as (F−Fmin)/(Fmax−Fmin)*100%.
Fluorescence resonance energy transfer (FRET)-based assay was employed to determine the LNP's ability to disrupt and fuse with the endosomal membrane (FIG. 4). DOPE-conjugated FRET probes (NBD-PE and N—Rh-PE) were formulated into endosome-mimicking nanoparticles. NBD is normally quenched by the rhodamine, but the NBD signal would rise if disruption of the membrane occurred. […]

C57BL/6 mice [2] = experiment: In vivo luciferase mRNA delivery (bioluminescence imaging, liver); conditions: 4-component LNP, tail vein, 0.25 mg/kg Luc mRNA, 6 h
Protocol: Ionizable lipid(s), DOPE, cholesterol, DMG-PEG2k were dissolved in ethanol as noted below in S2, and the Luc mRNA was diluted in 10 mM citric acid-sodium citrate buffer (pH 4.4) at the desired dosage. The lipid mixture and nucleic acid dilution were rapidly combined at a volumetric ratio of 3:1 nucleic acid:lipid mix. The nanoparticles were dialyzed against 1×PBS in Pur-A-Lyzer midi dialysis chambers (Sigma-Aldrich, WMCO 3.5 kDa) for 2 hours prior to injection.
All experiments were approved by the Institutional Animal Care & Use Committee (IACUC) of The University of Texas Southwestern Medical Center and were consistent with local, state and federal regulations as applicable. Female C57BL/6 mice (18-20 g) were injected with LNP formulations via tail vein injection (5 ug of mRNA, 0.25 mg/kg). After 6 h, the luciferase expression was evaluated by live animal bioluminescence imaging. Animals were anesthetized under isofluorane, and D-Luciferin (150 mg/kg) was introduced by intraperitoneal injection. Then, the luciferase activity was imaged, and ex vivo imaging was performed on systemic organs after resection on an IVIS Lumina system (Perkin Elmer). The images were processed using Living Image analysis software (Perkin Elmer).

IGROVI cells = experiment: Cellular uptake and intracellular trafficking of Cy5-labeled mRNA LNPs (confocal imaging); type: cell-based; conditions: for co-localization of Cy5 mRNA with lysosomes: 4 h and 24 h after incubation; for cellular uptake (internalization) of Cy5 Luc mRNA LNPs: at 4 hours and 24 hours
Protocol: Flash chromatography was performed on a Teledyne Isco CombiFlash Rf-200i chromatography system equipped with UV-Vis and evaporative light scattering detectors (ELSD) or manually using 60 Å, 40-63 um Silica (Sorbtech) or activated, neutral Aluminum Oxide (Sigma-Aldrich). Particle sizes and PDI were measured by Dynamic Light Scattering (DLS) using a Malvern Zetasizer Nano ZS (He-Ne laser, λ=632 nm). Confocal microscopy was conducted using a Zeiss LSM-710 laser scanning confocal microscope and data analyzed with the Zeiss LSM-710 software.
Cellular uptake and intracellular trafficking was further examined, in vitro experiments were performed using Cy5-labeled mRNA LNPs. […] The progression of Cy5 mRNA was further tracked from the cell membrane to endosomes to lysosomes and quantified co-localization of Cy5 mRNA with lysosomes. […] The overall results connected chemical structure to factors including cellular uptake, endosomal escape, and intracellular trafficking.

C57BL/6 mice [3] = experiment: Biodistribution of Cy5 Luc mRNA LNPs (ex vivo imaging); type: in vivo; conditions: IV, 0.25 mg/kg, 6 hours, ex vivo organs
IGROV-1 cells = experiment: In vitro luciferase expression of Luc mRNA LNPs; type: cell-based; conditions: IGROV-I cells, 25 ng mRNA per well, 24 h; lipid:DOPE:cholesterol:DMG-PEG2k 15:15:30:3
Protocol: Ionizable lipid, DOPE, cholesterol, DMG-PEG2k were dissolved in ethanol as noted below (S2, base formulation). Firefly Luciferase (Luc) mRNA was diluted in 10 mM citric acid-sodium citrate buffer (pH 4.4). The lipid mixture and nucleic acid solution were rapidly combined at a volumetric ratio of 3:1 nucleic acid:lipid mix. Afterwards, the LNP formulations were diluted with 1×PBS to 1 ng/uL concentration.
IGROV-1 cells were seeded into white 96-well plates at a density of 1×10^4 cells per well the day before transfection with media. Day of transfection, the media was replaced with 200 μL of fresh media. Then, 25 μL of the Luc mRNA formulations were added with a fixed dose of 25 ng mRNA per well. After incubation for another 24 hours, ONE-Glo+ Tox kits (Promega) were used to detect Luc mRNA expression and cytotoxicity.

SMILES | co-localization of Cy5 mRNA with lysosomes (IGROVI cells) | cellular uptake (internalization) of Cy5 Luc mRNA LNPs (IGROVI cells) | biodistribution of Cy5 Luc mRNA (ROI values) (C57BL/6 mice [3]) | other results
CC(C)=CCCC(C)CCSC(C)C(=O)OCCOC(=O)CCN(CCCN(C)CCCN(CCC(=O)OCCOC(=O)C(C)SCCC(C)CCC=C(C)C)CCC(=O)OCCOC(=O)C(C)SCCC(C)CCC=C(C)C)CCC(=O)OCCOC(=O)C(C)SCCC(C)CCC=C(C)C (centres unmarked) [4A3-Cit] | reduced colocalization with lysosomes | effectively internalized | no statistical difference; also recorded: did not change the biodistribution | lipid fusion with the model endosomal membrane [1]: efficacious; also recorded: highest lipid fusion ability; Luc mRNA expression in vivo (mRNA delivery) (C57BL/6 mice [2]; 0.25 mg/kg): performed better than 4A3-Ne; also recorded: highest efficacy; speed of internalization of Cy5 Luc mRNA LNPs (IGROVI cells; at 4 hours, versus saturated 4A3-SC8 LNPs): internalizing slightly faster
C/C=C/CCCSC(C)C(=O)OCCOC(=O)CCN(CCCN(C)CCCN(CCC(=O)OCCOC(=O)C(C)SCCC/C=C/C)CCC(=O)OCCOC(=O)C(C)SCCC/C=C/C)CCC(=O)OCCOC(=O)C(C)SCCC/C=C/C (centres unmarked) [4A3-4T] | – | – | – | Luc mRNA expression (in vitro Luc mRNA delivery) (IGROV-1 cells): most potent
CCCCCCCCSC(C)C(=O)OCCOC(=O)CCN(CCCN(C)CCCN(CCC(=O)OCCOC(=O)C(C)SCCCCCCCC)CCC(=O)OCCOC(=O)C(C)SCCCCCCCC)CCC(=O)OCCOC(=O)C(C)SCCCCCCCC (centres unmarked) [4A3-SC8, reference compound] | reduced colocalization with lysosomes | effectively internalized | no statistical difference | –
CC/C=C\C/C=C\CSC(C)C(=O)OCCOC(=O)CCN(CCCN(C)CCCN(CCC(=O)OCCOC(=O)C(C)SC/C=C\C/C=C\CC)CCC(=O)OCCOC(=O)C(C)SC/C=C\C/C=C\CC)CCC(=O)OCCOC(=O)C(C)SC/C=C\C/C=C\CC (centres unmarked) [4A3-8/2] | – | – | – | Luc mRNA expression in vivo (mRNA delivery) (C57BL/6 mice [2]): lower Luc expression compared to its alkyl partner
